Results reported in patent US5698575A, “Chromone compounds, pharmaceutical compositions containing the same, and use of the same” (Kureha Chemical Industry Co., Ltd., priority 1995, dated 1997).

Key:
Wistar rat = assay: Acute toxicity of chromone derivative, oral, rats; assay type: in vivo; details: male rats, 500 mg/kg orally
Procedure: (§1) The acute toxicity of the chromone derivative of the present invention was evaluated, for Crj:CD-1(ICR) mice (male; 6 weeks old) and Wistar rat (male; 6 weeks old). […] In the experiments as above, two animals were used for each group.

Crj:CD-1(ICR) mice = assay: Acute toxicity of chromone derivative, oral, mice; assay type: in vivo, mouse; details: male mice, 500 mg/kg orally
Procedure: as §1

[1] = system: Mouse melanoma (B16-BL6) cells; assay: Antitumor activity to mouse melanoma-cells-implanted mouse; assay type: in vivo; details: 100 mg/kg orally once a day for 13 days, C57BL/6N mice
Procedure: Mouse melanoma (B16-BL6) cells were subcutaneously implanted in the amount 1×10^6 cells in C57BL/6N mice (6 weeks old, male) at the axillary fossa. From the day after the implantation, 2-pyrrolylthiochromone was orally administered once a day for 13 days. The composition to be administered was preparedby dissolving 2-pyrrolylthiochromone powder in sesame oil, and administered at the dose of 100 mg of the compound per 1 kg of the mouse body weight. The amount of sesame oil administered was 10 ml/kg of the mouse body weight. To the control group, only sesame oil was administered. At the next day of the last administration day, the mice were sacrificed, and the weight of the tumor was measured. For the control group where the present compound was not administered, five mice were used, whereas 6 mice were used for the group where the present compound was administered.

| Compound | change in general state and body weight in comparison with the control group (Wistar rat; observed for 7 days) | remarkable toxicity (Wistar rat; observed for seven days) | change in general state and body weight in comparison with the control group (Crj:CD-1(ICR) mice; observed for 7 days) | remarkable toxicity (Crj:CD-1(ICR) mice; observed for seven days) | decrease in the body weight due to the administration [1] | inhibitory activity for the tumor growth (tumor weight) in comparison with the control group ([1]; B16-BL6 subcutaneous, FIG. 3) [%] |
| --- | --- | --- | --- | --- | --- | --- |
| COc1cc(OC)c2c(=O)cc(-n3cnc4ccccc43)oc2c1 [2-benzimidazolyl-5,7-dimethoxychromone] | no change was observed | no remarkable toxicity | no change was observed | no remarkable toxicity | – | – |
| O=c1cc(-n2cccc2)sc2ccccc12 [2-pyrrolylthiochromone] | – | – | – | – | not observed | 36.7 |
